Results published in patent US20060217340A1, “Methods and products for treating hypertension by modulation of TRPC3 channel activity” (University of Vermont and State Agricultural College, priority 2005, published 2006).
“Also recorded” adds a separate entry of the source.

What was measured:
Format in all cases: cell-based, rat
[1] = test system: smooth muscle cells isolated from sense- or antisense-treated cerebral arteries; test: Perforated patch clamp, UTP-activated whole-cell current; conditions: 30 μM UTP
Method: Patch clamp electrophysiology. Single smooth muscle cells were enzymatically isolated from sense- or antisense-treated cerebral arteries using an isolation solution of the following composition (in mM): 60 NaCl, 58 sodium glutamate, 5.6 KCl, 2 MgCl2, 10 glucose, 0.1 CaCl2, 10 HEPES (pH 7.4) with 0.5 mg/ml papain, and 1 mg/ml dithioerythritol added. After 10 minutes, arterial segments were placed in a second isolation solution containing 0.1 mM CaCl2 and a collagenase type F and hyaluronidase mixture (1 mg/ml each). Trituration was performed with a polished wide-bore pipette and the cells were stored on ice and used the same day. Whole cell ionic currents were measured using the perforated patch method in the presence or absence of 30 μM UTP. Recording electrodes (4-7 MΩ resistance) were pulled from borosilicate glass. Plated cells were voltage clamped and held at −60 mV for 15 minutes prior to experimentation; whole cell currents were monitored while voltage was slowly ramped (−120 to +20 mV, 0.167 mV/ms); currents were not leak subtracted. The bath solution contained (in mM): 120 NaCl, 1.2 MgCl2, 1.8 CaCl2, 10 HEPES (pH 7.4), and 10 glucose. The pipette solution contained (in mM): 120 CsCl, 3 MgCl2, 0.1 EGTA, 10 HEPES (pH 7.2), 10 glucose and 200 μg/ml amphotericin B. A series resistance of approximately 40 MΩ was accepted for all perforated patch clamp experiments. Membrane currents were filtered at 1 kHz, digitized at 5 kHz and stored in a personal computer system for subsequent analysis. pClamp 8.1 and Clampfit 8.1 (Axon Instruments) were used to record and analyze membrane currents. Cell capacitance was measured with the cancellation circuitry of the voltage-clamp amplifier (Axopatch 200A amplifier, Axon Instruments, Sunnyvale, Calif., USA). All current recordings were performed at room temperature (22° C.).

TRPC6 = test: Western analysis of TRPC6 protein expression in arteries; conditions: cerebral arterial SMCs
Method: (§1) Western Analysis. Arterial segments were homogenized in lysis buffer (5 minutes, 4° C.) containing (in mM): 40 CAPS, 1 DL-Dithiothreitol (DTT), 10 EDTA, 15 MgCl2, 115 NaCl, 1 NaOrthovanadate, 1 NaF, 2.5 Urea, and 0.25% deoxychlorate, 10% glycerol, 1% NP-40, 0.2% SDS, and 1:50 mammalian protease inhibitor cocktail (Sigma, St. Louis, Mo., USA). Equal amounts of sample protein were separated on a 10% polyacrylamide gel and transferred to a nitrocellulose membrane. The membranes were exposed to a TRPC3 or TRPC6 polyclonal antibody (anti-rabbit 1:200 dilution, Alomone Labs, Jerusalem, Israel) and a […] (GAPDH) monoclonal antibody (anti-mouse, 1:1000 dilution, Chemicon Labs, Temecula, Calif., USA). Alexa-Fluor 680® goat anti-rabbit (Molecular Probes, Eugene, Oreg., USA) and IRDyeTM800 anti-mouse (Rockland Immunochemicals, Gilbertsville, Pa., USA) were used to fluorescently label the TRPC3 and GAPDH antibodies respectively. The density of signals specific for the TRPC3 and GAPDH bands in a given lane on a membrane were measured after scanning the membrane with an Odyssey® infared imaging system (Li-COR Biosciences, Lincoln, Nebr., USA). Quantified amounts were normalized to a total protein amount lane on the polyacrylamide gel.
(§2) Oligodeoxynucleotide Sequences and Reverse Permeabilization. […]

[2] = test system: glyceraldehyde dehydrogenase (GAPDH); test: Western analysis of GAPDH protein expression in cerebral artery; conditions: 3 days organ culture
Method: as §1, §2

cerebral artery SMCs = test: Membrane potential recordings in pressurized cerebral arteries; conditions: for resting membrane potential (Vm): before UTP; for pressure-induced depolarization of arterial SMCs: intravascular pressure increased from 20 to 80 mm Hg
Description: Oligodeoxynucleotide Sequences and Reverse Permeabilization. TRPC6 sense and antisense oligodeoxynucleotides (ODN's) were designed as previously described (Welsh et al 2002 Circ Res 90, 248-250) and were as follows: sense, 5′-[…]-3′ (SEQ ID: 3) and 5′-GCACACGCAGCCTCTTCAC-3′ (SEQ ID: 4) antisense, 5′-[…]-3′ (SEQ ID: 5) and 5′-[…]-3′ (SEQ ID: 6). TRPC3 sense and antisense ODN's were designed based on the rat TRPC3 gene (Ohki et al 2000 J Biol Chem 275: 39055-39060) and are as follows: sense, 5′-[…]-3′ (SEQ ID: 7) and 5′-[…]-3′ (SEQ ID: 8); anti-sense, 5′-[…]-3′ (SEQ ID: 9) and 5′-[…]-3′ (SEQ ID: 10). The last five bases on the 5′ and 3′ end were phosphorothioated in order to limit ODN degradation. For some experiments fluoroscein-isothiocyanate was conjugated to the 5′ end to allow for histological assessment of cellular uptake of the ODNs. All ODNs were synthesized and HPLC purified commercially by Qiagen (Alameda, Calif., USA). Sense and antisense ODN's (2 μM) were introduced into the arterial SMs using a reversible permeabilization procedure (Lesh et al 1995 Circ Res 77,220-230)). The arterial segments were then organ cultured for 3 days in D-MEM/F-12 culture media with L-glutamine (2 mM), penicillin (50 units/ml) and streptomycin (50 μg/ml) prior to use.
Diameter and membrane potential recordings. Endothelial cell denuded artery segments were mounted on glass pipettes in an arteriograph chamber (Living Systems, Burlington, Vt., USA), pressurized to 20 mmHg (with no flow), and superfused with warm (37° C.), gassed (95% 02/5% CO2) physiological saline solution (PSS) containing (in mM): 119 NaCl, 4.7 KCl, 24 NaHCO3, 0.2 KH2PO4, […], 1.2 MgSO4, 1.6 CaCl2, and 10.6 glucose, pH 7.4. In experiments using Ca^2+-free PSS, CaCl2 was omitted and 3 mM EGTA and 30 μM diltiazem added. In experiments with diacylglycerol induction, 300 μM of the diacylglycerol analogue OAG (1-oleyol-2-acetyl-sn-glycerol) was added. The endothelium was removed as previously described (Sun et al 1993 Endothelium 1, 115-122). To verify endothelial cell removal the arteries were pressurized to 60 mmHg and allowed to develop myogenic tone prior to exposing the vessels to 1 μM UTP. Absence of a dilation or biphasic constrictor response to 1 μM UTP indicated successful endothelial cell removal (Marelli 2001 Am J Physiol Heart Cir Physiol 281, H1759-H1766; Miyagi et al 1996 Br J Pharmacol 118, 847-856). Arterial diameter or membrane potential (Vm) of sense and anti-sense treated arteries was measured in the absence (control) or presence of UTP (concentration range: 0.1 to 10 μM). Membrane potential was measured by inserting a sharp glass electrode (≈100 MΩ resistance) containing 0.5M KCl into the vessel wall. The criteria for successful vascular smooth muscle cell impalement were: (1) a sharp negative Vm deflection on entry; (2) a stable potential for at least 1 minute after entry; and (3) a sharp positive Vm deflection upon removal. Measurements were made using an electrometer (World Precision Instruments) and the data were recorded via computer using Axotape and Dataq software. Arterial diameter was measured using a video dimension analyzer (IonOptix Corporation; Milton, Mass.).

## 5′-GAGAACCATGAACTGGAATA-3′ (SEQ ID: 9) and 5′-ACGACCAACACGACCAGACA-3′ (SEQ ID: 10) (phosphorothioate ends, further chemistry not given here) [TRPC3 antisense, antisense ODNs based on the rat TRPC3 gene; last five bases on the 5′ and 3′ end phosphorothioated]
[1]
  SMCs in which the response to UTP was absent: 3 of 5
  SMCs in which the response to UTP was greatly suppressed: 2 of 5
TRPC6
  effect on the expression of TRPC6: no effect
[2]
  effect on the expression of GAPDH: no effect
Cerebral artery SMCs; all UTP concentrations tested
  UTP-induced depolarization of SMCs versus sense-treated arteries: significantly less; also recorded: significantly reduced
Cerebral artery SMCs
  resting membrane potential (Vm): −49±2 mV
  pressure-induced depolarization of arterial SMCs: 14±1 mV

## 5′-TATTCCAGTTCATGGTTCTC-3′ (SEQ ID: 7) and 5′-TGTCTGGTCGTGTTGGTCGT-3′ (SEQ ID: 8) (phosphorothioate ends, further chemistry not given here) [TRPC3 sense, sense control ODNs based on the rat TRPC3 gene; end bases phosphorothioated]
[1]; voltage ramps −120 mV to 20 mV
  cells with UTP-activated whole cell current: 8 of 9
Cerebral artery SMCs
  resting membrane potential (Vm): −50±1 mV
  pressure-induced depolarization of arterial SMCs: 14±1 mV
